Measured values as given in ChEMBL document CHEMBL1126445, “Acetylcholine-releasing agents as cognition enhancers. Structure-activity relationships of pyridinyl pendant groups on selected core structures” (1992).

Species on record: Rattus norvegicus
Experiment: Compound was evaluated for its ability to enhance the release of acetylcholine in vitro by using [3H]choline in rat brain slice superfusion system
Type: functional

| Compound | Release |
| --- | --- |
| O=C1CCc2ccccc2C1(Cc1cccnc1)Cc1cccnc1 | 11% |
| c1cncc(CC2(Cc3cccnc3)c3ccccc3Sc3ccccc32)c1 | 79% |
| c1ccc(CC2(Cc3ccccn3)c3ccccc3Oc3ccccc32)nc1 | 24% |
| OC1c2cccc3cccc(c23)C1(Cc1cccnc1)Cc1cccnc1 (stereo unspecified) | 29% |
| C=C1c2cccc3cccc(c23)C1(Cc1cccnc1)Cc1cccnc1 | 21% |
| O=C1c2cccc3cccc(c23)C1(Cc1cccnc1)Cc1cccnc1 | 7% |
| OC1c2cccc3cccc(c23)C1(Cc1ccncc1)Cc1ccncc1 (stereo unspecified) | 15% |
| C=C1c2cccc3cccc(c23)C1(Cc1ccncc1)Cc1ccncc1 | 97% |
| c1ccc2c(c1)Sc1ccccc1C2(Cc1ccncc1)Cc1ccncc1 | 42% |
| c1ccc(CC2(Cc3ccccn3)c3ccccc3Sc3ccccc32)nc1 | 47% |
| O=C1CCc2ccccc2C1(Cc1ccncc1)Cc1ccncc1 | 36% |
| c1ccc2c(c1)Oc1ccccc1C2(Cc1ccncc1)Cc1ccncc1 | 91% |
| O=C1N(c2ccccc2)c2ccccc2C1(Cc1cccnc1)Cc1cccnc1 | 38% |
| c1cncc(CC2(Cc3cccnc3)c3ccccc3Oc3ccccc32)c1 | 59% |
| O=C1c2cccc3cccc(c23)C1(Cc1ccccn1)Cc1ccccn1 | 40% |
| O=C1CCc2ccccc2C1(Cc1ccccn1)Cc1ccccn1 | 25% |
| OC1c2cccc3cccc(c23)C1(Cc1ccccn1)Cc1ccccn1 (stereo unspecified) | 53% |
| C=C1c2cccc3cccc(c23)C1(Cc1ccccn1)Cc1ccccn1 | 25% |
| O=C1N(c2ccccc2)c2ccccc2C1(Cc1ccccn1)Cc1ccccn1 | 22% |
| O=C1c2cccc3cccc(c23)C1(Cc1ccncc1)Cc1ccncc1 | 70% |
| O=C1N(c2ccccc2)c2ccccc2C1(Cc1ccncc1)Cc1ccncc1 [LINOPIRDINE] | 100% |
